This experiment relates to HCT116 MTAP-deleted cell lines. Put plainly: Cell viability assay (CellTiter-Glo, 7 days), HCT116 MTAP-deleted. The format is cell-based. The following applies: Homo sapiens, HCT-116, HCT116 MTAP-deleted, class symbols, read-out: CC50. The method, boiled down:
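PRMT5 inhibitors were serially diluted in DMSO and acoustically spotted as dose-response series into plates before cell seeding. Cells were grown with compound for 7 days at 37 °C, 5% CO2, 90% humidity, then viability was read by CellTiter-Glo luminescence and reported as CC50.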
In general terms: In ATP-based viability assays light output follows the ATP content of the culture.

The structures appear in SMILES notation. Read-outs that look alike come from different tables or passages of the source.

On to `CN(C(=O)c1cc2c(cc1F)nc(N)c1cncn12)[C@@H]1COc2cc(-c3cnn4c3COCC4)ccc21` [Ff-150, (S)-4-amino-N-(6-(6,7-dihydro-4H-pyrazolo[5,1-c][1,4]oxazin-3-yl)-2,3-dihydrobenzofuran-3-yl)-7-fluoro-N-methylimidazo[1,5-a]quinoxaline-8-carboxamide], for which the half-maximal cytotoxic concentration (CC50) (as a rule, the concentration that lowers cell viability or growth by half) (cell viability) is less than 100 nM.

Consider `Nc1nc2cc(F)c(C(=O)N3CCC[C@@H]4Cc5cc(C(F)(F)F)ccc5[C@@H]43)cc2n2cncc12` (racemic) [Ff-310, Rac-(4-amino-7-fluoroimidazo[1,5-a]quinoxalin-8-yl)((4aR,9bR)-7-(trifluoromethyl)-2,3,4,4a,5,9b-hexahydro-1H-indeno[1,2-b]pyridin-1-yl)methanone], for which, under “cell viability”, the CC50 is less than 100 nM.

In the case of `Nc1nc2cc(F)c(C(=O)N3CCC[C@@H]4OCc5cc(-c6cnn(C(F)(F)F)c6)ccc5[C@@H]43)cc2n2cncc12` (racemic) [Ff-295, Rac-(4-amino-7-fluoroimidazo[1,5-a]quinoxalin-8-yl)((4aS,10bS)-8-(1-(trifluoromethyl)-1H-pyrazol-4-yl)-2,3,4,4a,6,10b-hexahydro-1H-isochromeno[4,3-b]pyridin-1-yl)methanone], for the setting “cell viability”, the CC50 is less than 100 nM.

Consider `CN(C(=O)c1cc2c(cc1F)nc(N)c1cncn12)C1COc2cc(Br)c(Cl)cc21` (stereo not drawn) [Ff-609, 4-amino-N-(6-bromo-5-chloro-2,3-dihydrobenzofuran-3-yl)-7-fluoro-N-methylimidazo[1,5-a]quinoxaline-8-carboxamide], for which the CC50 (cell viability assay) is less than 100 nM.

For `CN(C(=O)c1cc2c(cc1F)nc(N)c1cncn12)[C@@H]1COc2c1ccc(OC(F)F)c2F` [Ff-672, (S)-4-amino-N-(6-(difluoromethoxy)-7-fluoro-2,3-dihydrobenzofuran-3-yl)-7-fluoro-N-methylimidazo[1,5-a]quinoxaline-8-carboxamide], the 50% cytotoxic concentration (CC50) (cell viability assay) was less than 100 nM.

On to `CN(C(=O)c1cc2c(cc1F)nc(N)c1cncn12)[C@@H]1COc2cc([C@@H]3C[C@H]3C3CC3)ccc21` (racemic) [Ff-474, Trans-N-((3S)-6-([1,1′-bi(cyclopropan)]-2-yl)-2,3-dihydrobenzofuran-3-yl)-4-amino-7-fluoro-N-methylimidazo[1,5-a]quinoxaline-8-carboxamide], for which the 50% cytotoxic concentration (CC50) (cell viability assay) is less than 100 nM.

For the compound `CN(C(=O)c1cc2c(cc1F)nc(N)c1cncn12)C1COc2cc(Br)c(F)cc21` (stereo not drawn) [Ff-560, 4-amino-N-(6-bromo-5-fluoro-2,3-dihydrobenzofuran-3-yl)-7-fluoro-N-methylimidazo[1,5-a]quinoxaline-8-carboxamide], the half-maximal cytotoxic concentration (CC50) (cell viability assay) was less than 100 nM.

In the case of `CN(C(=O)c1cc2c(cc1F)nc(N)c1cncn12)[C@@H]1COc2c(Br)cccc21` [Ff-455, (S)-4-amino-N-(7-bromo-2,3-dihydrobenzofuran-3-yl)-7-fluoro-N-methylimidazo[1,5-a]quinoxaline-8-carboxamide], the CC50 (cell viability assay) was in the range of 100 to 1000 nM.

In the case of `Nc1nc2cnc(C(=O)N3CCO[C@@H]4Cc5c(cc(F)c(Br)c5F)[C@@H]43)cc2n2cncc12` [Ff-162, (4-aminoimidazo[1,5-a]pyrido[3,4-e]pyrazin-8-yl)((4aS,9aR)-7-bromo-6,8-difluoro-2,3,9,9a-tetrahydroindeno[2,1-b][1,4]oxazin-4(4aH)-yl)methanone], the cytotoxic concentration (CC50) (cell viability) fell in the range of 100 to 1000 nM.

For `Nc1nc2cc(F)c(C(=O)N3CCOC[C@@H]3c3ccc(OC(F)(F)F)cc3)cc2n2cncc12` (single isomer, unassigned) [Ff-555], under “cell viability assay”, the CC50 was less than 100 nM.

As for `Nc1nc2cc(F)c(C(=O)N3CCCCC3c3ccc(C(F)(F)F)cc3F)cc2n2cncc12` (stereo not drawn) [Ff-141, (4-amino-7-fluoroimidazo[1,5-a]quinoxalin-8-yl)(2-(2-fluoro-4-(trifluoromethyl)phenyl)piperidin-1-yl)methanone], the CC50 (cell viability) is less than 100 nM.

In the case of `Cc1ncn2c1c(N)nc1cc(F)c(C(=O)N3CCC[C@@H]4Oc5nc(C(F)(F)F)ccc5[C@@H]43)cc12` [Ff-362, (4-amino-7-fluoro-3-methylimidazo[1,5-a]quinoxalin-8-yl)((4aS,9bS)-7-(trifluoromethyl)-3,4,4a,9b-tetrahydrofuro[2,3-b:4,5-b′]dipyridin-1(2H)-yl)methanone], where the note is “cell viability”, the CC50 was less than 100 nM.

As for `Cc1ncc2c(N)nc3cc(F)c(C(=O)N4C[C@@H](C)O[C@@H]5Cc6cc(C(F)(F)F)ccc6[C@@H]54)cc3n12` [Ff-629, (4-amino-7-fluoro-1-methylimidazo[1,5-a]quinoxalin-8-yl)((2R,4aS,9aR)-2-methyl-7-(trifluoromethyl)-2,3,9,9a-tetrahydroindeno[2,1-b][1,4]oxazin-4(4aH)-yl)methanone], the CC50 (cell viability assay) is less than 100 nM.

As for `Nc1nc2cnc(C(=O)N3CCC[C@@H]4Oc5cc(C(F)(F)F)c(Cl)cc5[C@@H]43)cc2n2cncc12` [Ff-259, (4-aminoimidazo[1,5-a]pyrido[3,4-e]pyrazin-8-yl)((4aS,9bS)-8-chloro-7-(trifluoromethyl)-3,4,4a,9b-tetrahydrobenzofuro[3,2-b]pyridin-1(2H)-yl)methanone], where the note is “cell viability”, the cytotoxic concentration (CC50) is less than 100 nM.

`Nc1nc2cnc(C(=O)N3CCC[C@@H]4Oc5c(ccc(OC(F)(F)F)c5F)[C@@H]43)cc2n2cncc12` [Ff-336, (4-aminoimidazo[1,5-a]pyrido[3,4-e]pyrazin-8-yl)((4aS,9bS)-6-fluoro-7-(trifluoromethoxy)-3,4,4a,9b-tetrahydrobenzofuro[3,2-b]pyridin-1(2H)-yl)methanone]: the half-maximal cytotoxic concentration (CC50) (cell viability) was less than 100 nM.

`CN(C(=O)c1cc2c(cc1F)nc(N)c1cncn12)[C@@H]1COc2cc([C@@H]3C[C@H]3c3ccccc3)ccc21` (racemic) [Ff-473, Trans-4-amino-7-fluoro-N-methyl-N-((3S)-6-(2-phenylcyclopropyl)-2,3-dihydrobenzofuran-3-yl)imidazo[1,5-a]quinoxaline-8-carboxamide]: for the setting “cell viability assay”, the half-maximal cytotoxic concentration (CC50) was less than 100 nM.

Consider `CN(C(=O)c1cc2c(cc1Cl)nc(N)c1cncn12)[C@@H]1COc2cc(C(C)(F)F)ccc21` [Ff-508, (S)-4-amino-7-chloro-N-(6-(1,1-difluoroethyl)-2,3-dihydrobenzofuran-3-yl)-N-methylimidazo[1,5-a]quinoxaline-8-carboxamide], for which the CC50 (cell viability assay) is less than 100 nM.

On to `CCN(C(=O)c1ccc2nc(N)c3cncn3c2c1)[C@@H](c1ccc(C(F)(F)F)cc1F)C(F)F` [Fb-15, (S)-4-amino-N-(2,2-difluoro-1-(2-fluoro-4-(trifluoromethyl)phenyl)ethyl)-N-ethylimidazo[1,5-a]quinoxaline-8-carboxamide], for which the CC50 (cell viability) is less than 100 nM.

Turning to `Nc1nc2cc(F)c(C(=O)N3CCO[C@@H]4Cc5cc(OC(F)F)ccc5[C@@H]43)cc2n2cncc12` [Fg-24, (4-amino-7-fluoroimidazo[1,5-a]quinoxalin-8-yl)((4aS,9aR)-7-(difluoromethoxy)-2,3,9,9a-tetrahydroindeno[2,1-b][1,4]oxazin-4(4aH)-yl)methanone], the CC50 (cell viability assay) is less than 100 nM.

Take `CN(C(=O)c1cc2c(cc1F)nc(N)c1cncn12)[C@@H]1COc2cc(C#CC3(C)CC3)ccc21` [Ff-514, (S)-4-amino-7-fluoro-N-methyl-N-(6-((1-methylcyclopropyl)ethynyl)-2,3-dihydrobenzofuran-3-yl)imidazo[1,5-a]quinoxaline-8-carboxamide]: the cytotoxic concentration (CC50) (cell viability assay) fell in the range of 100 to 1000 nM.

As to `C[C@@H]1C[C@@H]2Cc3nc(C(F)(F)F)ccc3[C@@H]2N(C(=O)c2cc3c(cc2F)nc(N)c2cncn23)C1` (single isomer, unassigned) [Ff-393], the cytotoxic concentration (CC50) (cell viability assay) is less than 100 nM.
